{"source": "patent US20150182675A1", "about": "“Ascorbic Acid-Eluting Implantable Medical Devices, Systems, and Related Methods” (South Dakota Board of Regents, priority 2012, published 2015)", "assay_type_in_all_cases": "cell-based", "key": {"smooth muscle cells [1]": {"test_system": "smooth muscle cells", "assay": "Resazurin fluorometric assay of smooth muscle cell cultures (Example Eight)", "conditions": "for number of smooth muscle cells in comparison to the control: day 1; for smooth muscle cell growth vs control: day 3", "procedure": "(§1) In Example 8, a quantitative resazurin fluorometric assay was used. A solution of alamarBlue® from a kit purchased from Biotium Inc. (in Hayward, Calif.) was added to the smooth muscle cell cultures which were already treated with ascorbic acid, sirolimus, or paclitaxel. A control lacking any therapeutic agent was also included. After respective time points (1, 3, 5, and 7 days), the fluorescence of the solution was measured using a microplate reader. The collected data is provided as relative fluorescence units (RFU) vs. time for all the three groups (ascorbic acid, sirolimus, and paclitaxel) of samples."}, "smooth muscle cells [2]": {"test_system": "smooth muscle cells", "assay": "Resazurin fluorometric assay of smooth muscle cells, different doses of ascorbic acid (Example Eleven)", "procedure": "(§2) In Example 11, a quantitative resazurin fluorometric assay was used. A solution of alamarBlue® from a kit purchased from Biotium Inc. (in Hayward, Calif.) was added to smooth muscle cell cultures which were already treated with different doses of ascorbic acid. More specifically, the different doses of ascorbic acid included 1 μg/mL, 100 μg/mL, 300 μg/mL, 500 μg/mL, and 1000 μg/mL. A control lacking any ascorbic acid was also included. After respective time points (1, 3, 5, and 7 days), the fluorescence of the solution was measured using a microplate reader. The collected data is provided as relative fluorescence units (RFU) vs. time for all the six groups (control, 1 μg/mL, 100 μg/mL, 300 μg/mL, 500 μg/mL, and 1000 μg/mL) of samples."}, "endothelial cells [3]": {"test_system": "endothelial cells", "assay": "FDA staining and fluorescence microscopy of endothelial cell cultures (Example One)", "conditions": "for endothelial cell adhesion: 100 μg added, 15,000 cells per well, day 1; for spreading of endothelial cells: day 5", "procedure": "In Example 1, […] of L-ascorbic acid, 100 μg of sirolimus, and 100 μg paclitaxel were added to separate endothelial cell cultures (15,000 cells per well). A control cell culture was also provided in which no agent was added. The endothelial cell adhesion in the culture well was investigated by staining the live cells with fluorescein diacetate (FDA). The FDA-stained live cells were then imaged using fluorescence microscopy on day one, day 3, day five, and day seven of culture. After five days, a determination of the spreading of endothelial cells was made. After seven days, a determination of growth (viability and proliferation) of endothelial cells was made."}, "smooth muscle cells [4]": {"test_system": "smooth muscle cells", "assay": "FDA staining and fluorescence microscopy of smooth muscle cells, different doses of ascorbic acid (Example Twelve)", "conditions": "for confluence of smooth muscle cells: after 7 days", "from_the_text": "(§3) Example 12 provides a qualitative characterization of the Example Eleven results using fluorescence microscopy. More specifically, the growth of smooth muscle cells in the presence of five different doses of ascorbic acid was investigated by staining the live cells with fluorescein diacetate (FDA). The FDA-stained live cells were then imaged using fluorescence microscopy on day 1, day 3, day 5, and day 7 of culture. On each day, a determination of growth (viability and proliferation) of smooth muscle cells was made."}, "endothelial cells [5]": {"test_system": "endothelial cells", "assay": "Resazurin fluorometric assay of endothelial cells, different doses of ascorbic acid (Example Seven)", "procedure": "as §2, with “7,” for “11,”, “the endothelial” for “smooth muscle”"}, "smooth muscle cells [6]": {"test_system": "smooth muscle cells", "assay": "Phase contrast microscopy of smooth muscle cell morphology (Example Ten)", "conditions": "day 7, phase contrast", "from_the_text": "Example 10 provides a further qualitative characterization of the Example Eight results using phase contrast microscopy. That is, the effects of L-AA, SIR, and PAT on the growth of smooth muscle cells was investigated by taking phase contrast images of cells after 7 days using an Axiovert 200 M inverted microscopy (Carl Zeiss) in the bright field imaging mode and examining the cell morphology."}, "smooth muscle cells [7]": {"test_system": "smooth muscle cells", "assay": "FDA staining and fluorescence microscopy of smooth muscle cells (Example Nine)", "conditions": "for smooth muscle cell growth from one time point to the other: FDA staining, days 1 to 7; for confluence of smooth muscle cells: after 7 days", "from_the_text": "as §3, with “9” for “12”, “Eight” for “Eleven”, “flurorescence” for “fluorescence”, “three” for “five”, “treatments (ascorbic acid, paclitaxel, and sirolimus)” for “doses of ascorbic acid”"}, "endothelial cells [8]": {"test_system": "endothelial cells", "assay": "Phase contrast microscopy of endothelial cell morphology (Example Six)", "conditions": "100 μg added, day 7, phase contrast", "procedure": "In Example 6, 100 μg of L-ascorbic acid, 100 μg of sirolimus, and 100 μg paclitaxel were added to separate endothelial cell cultures. A control cell culture was also provided in which no agent was added. The effects of L-AA, SIR, and PAT on the growth of endothelial cells was investigated by taking phase contrast images of cells after 7 days using an Axiovert 200 M inverted microscopy (Carl Zeiss) in the bright field imaging mode and examining the cell morphology."}, "endothelial cells [9]": {"test_system": "endothelial cells", "assay": "Resazurin fluorometric assay (Alamar Blue) of endothelial cell cultures (Example Two)", "conditions": "RFU, FIG. 5", "procedure": "as §1, with “order to provide” for “Example 8,”, “quantitative characterization of the Example One results, a” for “quantitative”, “assay (Alamar Blue)” for “assay”, “Alamar Blue” for “alamarBlue® from a kit purchased from Biotium Inc. (in Hayward, Calif.)”, “endothelial” for “smooth muscle”, “was” for “was also”"}, "[10]": {"conditions": "days 1 to 7, doses 1 to 1000 μg"}}, "data": [{"compound": "O=C1O[C@H]([C@@H](O)CO)C(O)=C1O", "note": "[ascorbic acid, L-ascorbic acid]", "values": [{"measurement": "number of smooth muscle cells in comparison to the control", "setting": "smooth muscle cells [1]", "result": "significantly lesser number of cells"}, {"measurement": "smooth muscle cell growth vs control", "setting": "smooth muscle cells [1]", "result": "significantly inhibited the cell growth"}, {"measurement": "effect on growth of SMCs (overall)", "setting": "smooth muscle cells [1]; days 1 to 7", "result": "significantly inhibited growth of SMCs"}, {"measurement": "order of SMC viability and proliferation (decreasing)", "setting": "smooth muscle cells [1]; days 1 to 7", "result": "Control>>ascorbic acid>sirolimus=paclitaxel"}, {"measurement": "number of smooth muscle cells vs control and 1 μg dose", "setting": "smooth muscle cells [2]; day 1, doses 100 to 1000 μg", "result": "significantly fewer cells"}, {"measurement": "number of smooth muscle cells vs 100 and 300 μg doses", "setting": "smooth muscle cells [2]; day 3 (similar days 5 and 7), 500 and 1000 μg doses", "result": "fewer cells in comparison to the 100 and 300 μg doses"}, {"measurement": "order of viability and proliferation of smooth muscle cells for the different doses (decreasing)", "setting": "smooth muscle cells [2]; [10]", "result": "control=1 μg>>100 μg=300 μg>500 μg=1000 μg"}, {"measurement": "endothelial cell adhesion", "setting": "endothelial cells [3]", "result": "excellent"}, {"measurement": "spreading of endothelial cells", "setting": "endothelial cells [3]; 100 μg added", "result": "excellent"}, {"measurement": "growth (viability and proliferation) of endothelial cells", "setting": "endothelial cells [3]; 100 μg added, day 7", "result": "excellent"}, {"measurement": "growth of endothelial cells in comparison to the control", "setting": "endothelial cells [3]; 100 μg added, day 7", "result": "more growth in comparison to the control"}, {"measurement": "inhibitory effect on smooth muscle cells", "setting": "smooth muscle cells [4]; 1 μg dose", "result": "no inhibitory effect"}, {"measurement": "inhibitory effect on smooth muscle cells", "setting": "smooth muscle cells [4]; 1000 μg dose", "result": "maximum inhibitory effect"}, {"measurement": "confluence of smooth muscle cells", "setting": "smooth muscle cells [4]; 1 μg dose", "result": "> 90", "unit": "%"}, {"measurement": "confluence of smooth muscle cells", "setting": "smooth muscle cells [4]; 100 μg dose", "result": "50-60%"}, {"measurement": "confluence of smooth muscle cells", "setting": "smooth muscle cells [4]; 300 μg dose", "result": "50-60%"}, {"measurement": "confluence of smooth muscle cells", "setting": "smooth muscle cells [4]; 500 μg dose", "result": "30-40%"}, {"measurement": "confluence of smooth muscle cells", "setting": "smooth muscle cells [4]; 1000 μg dose", "result": "30-40%"}, {"measurement": "smooth muscle cell growth", "setting": "smooth muscle cells [4]; doses ranging from 100 to 1000 μg, days 1 to 7", "result": "significantly inhibited"}, {"measurement": "number of endothelial cells vs control", "setting": "endothelial cells [5]; day 1, all doses (1 to 1000 μg/mL)", "result": "no significant differences"}, {"measurement": "number of endothelial cells vs control and other doses", "setting": "endothelial cells [5]; day 3, 100 μg dose", "result": "significantly greater"}, {"measurement": "number of endothelial cells vs control and other doses", "setting": "endothelial cells [5]; day 5, 100 μg dose", "result": "significantly greater number of cells"}, {"measurement": "number of endothelial cells vs control and other doses", "setting": "endothelial cells [5]; day 5, 300 μg dose", "result": "significantly greater number of cells"}, {"measurement": "number of endothelial cells vs control and other doses", "setting": "endothelial cells [5]; day 5, 500 μg dose", "result": "significantly greater number of cells"}, {"measurement": "number of endothelial cells among the groups", "setting": "endothelial cells [5]; day 7, 300 μg/mL dose", "result": "maximum number of cells"}, {"measurement": "number of endothelial cells among the groups", "setting": "endothelial cells [5]; day 7, 100 dose", "result": "maximum number of cells"}, {"measurement": "order of viability and proliferation of endothelial cells for the different doses (increasing)", "setting": "endothelial cells [5]; [10]", "result": "1000 μg<1 μg=control=500 μg<<300 μg=100 μg"}, {"measurement": "smooth muscle cell morphology and spreading", "setting": "smooth muscle cells [6]", "result": "spindle-shaped, but they were less spreading when compared to the control"}, {"measurement": "smooth muscle cell growth from one time point to the other", "setting": "smooth muscle cells [7]", "result": "significantly inhibited"}, {"measurement": "confluence of smooth muscle cells", "setting": "smooth muscle cells [7]", "result": "50-60%"}, {"measurement": "endothelial cell morphology", "setting": "endothelial cells [8]", "result": "spreading morphology with characteristic polygonal shape"}, {"measurement": "growth of endothelial cells relative to cells treated with paclitaxel", "setting": "endothelial cells [9]", "result": 10, "unit": "fold"}, {"measurement": "growth of endothelial cells relative to cells treated with sirolimus", "setting": "endothelial cells [9]", "result": 19, "unit": "fold"}, {"measurement": "growth of endothelial cells relative to control (no drug)", "setting": "endothelial cells [9]", "result": 1.6, "unit": "fold"}]}, {"compound": "CC(=O)O[C@H]1C(=O)[C@@]2(C)[C@H]([C@H](OC(=O)c3ccccc3)[C@]3(O)C[C@H](OC(=O)[C@H](O)[C@@H](NC(=O)c4ccccc4)c4ccccc4)C(C)=C1C3(C)C)[C@]1(OC(C)=O)CO[C@@H]1C[C@@H]2O", "note": "[paclitaxel]", "values": [{"measurement": "number of smooth muscle cells in comparison to the control", "setting": "smooth muscle cells [1]", "result": "significantly lesser number of cells"}, {"measurement": "smooth muscle cell growth vs control", "setting": "smooth muscle cells [1]", "result": "significantly inhibited the cell growth"}, {"measurement": "number of smooth muscle cells vs ascorbic acid treatment", "setting": "smooth muscle cells [1]; day 5 (similar on day 7)", "result": "lesser numbers of cells than that of the ascorbic acid treatment"}, {"measurement": "order of SMC viability and proliferation (decreasing)", "setting": "smooth muscle cells [1]; days 1 to 7", "result": "Control>>ascorbic acid>sirolimus=paclitaxel"}, {"measurement": "endothelial cell adhesion", "setting": "endothelial cells [3]", "result": "poor"}, {"measurement": "spreading of endothelial cells", "setting": "endothelial cells [3]; 100 μg added", "result": "poor"}, {"measurement": "growth (viability and proliferation) of endothelial cells", "setting": "endothelial cells [3]; 100 μg added, day 7", "result": "poor"}, {"measurement": "smooth muscle cell morphology and spreading", "setting": "smooth muscle cells [6]", "result": "not spreading and only very few cells were spindle-shaped"}, {"measurement": "smooth muscle cell growth from one time point to the other", "setting": "smooth muscle cells [7]", "result": "significantly inhibited"}, {"measurement": "confluence of smooth muscle cells", "setting": "smooth muscle cells [7]", "result": "about 20%"}, {"measurement": "endothelial cell morphology", "setting": "endothelial cells [8]", "result": "uncharacteristic oval or round shape with no spreading morphology"}]}, {"compound": "CO[C@H]1C[C@@H]2CC[C@@H](C)[C@@](O)(O2)C(=O)C(=O)N2CCCC[C@H]2C(=O)O[C@H]([C@H](C)C[C@@H]2CC[C@@H](O)[C@H](OC)C2)CC(=O)[C@H](C)/C=C(\\C)[C@@H](O)[C@@H](OC)C(=O)[C@H](C)C[C@H](C)/C=C/C=C/C=C/1C", "note": "[sirolimus]", "values": [{"measurement": "confluence of smooth muscle cells", "setting": "smooth muscle cells [7]", "result": "about 20%"}]}]}
